Measurements from doi:10.1101/471615v1 (biorxiv, 2018).

Target: T1, GAK (InCELL Pulse) (Homo sapiens, UniProt O14976)
T1 sequence (O14976 2-1311): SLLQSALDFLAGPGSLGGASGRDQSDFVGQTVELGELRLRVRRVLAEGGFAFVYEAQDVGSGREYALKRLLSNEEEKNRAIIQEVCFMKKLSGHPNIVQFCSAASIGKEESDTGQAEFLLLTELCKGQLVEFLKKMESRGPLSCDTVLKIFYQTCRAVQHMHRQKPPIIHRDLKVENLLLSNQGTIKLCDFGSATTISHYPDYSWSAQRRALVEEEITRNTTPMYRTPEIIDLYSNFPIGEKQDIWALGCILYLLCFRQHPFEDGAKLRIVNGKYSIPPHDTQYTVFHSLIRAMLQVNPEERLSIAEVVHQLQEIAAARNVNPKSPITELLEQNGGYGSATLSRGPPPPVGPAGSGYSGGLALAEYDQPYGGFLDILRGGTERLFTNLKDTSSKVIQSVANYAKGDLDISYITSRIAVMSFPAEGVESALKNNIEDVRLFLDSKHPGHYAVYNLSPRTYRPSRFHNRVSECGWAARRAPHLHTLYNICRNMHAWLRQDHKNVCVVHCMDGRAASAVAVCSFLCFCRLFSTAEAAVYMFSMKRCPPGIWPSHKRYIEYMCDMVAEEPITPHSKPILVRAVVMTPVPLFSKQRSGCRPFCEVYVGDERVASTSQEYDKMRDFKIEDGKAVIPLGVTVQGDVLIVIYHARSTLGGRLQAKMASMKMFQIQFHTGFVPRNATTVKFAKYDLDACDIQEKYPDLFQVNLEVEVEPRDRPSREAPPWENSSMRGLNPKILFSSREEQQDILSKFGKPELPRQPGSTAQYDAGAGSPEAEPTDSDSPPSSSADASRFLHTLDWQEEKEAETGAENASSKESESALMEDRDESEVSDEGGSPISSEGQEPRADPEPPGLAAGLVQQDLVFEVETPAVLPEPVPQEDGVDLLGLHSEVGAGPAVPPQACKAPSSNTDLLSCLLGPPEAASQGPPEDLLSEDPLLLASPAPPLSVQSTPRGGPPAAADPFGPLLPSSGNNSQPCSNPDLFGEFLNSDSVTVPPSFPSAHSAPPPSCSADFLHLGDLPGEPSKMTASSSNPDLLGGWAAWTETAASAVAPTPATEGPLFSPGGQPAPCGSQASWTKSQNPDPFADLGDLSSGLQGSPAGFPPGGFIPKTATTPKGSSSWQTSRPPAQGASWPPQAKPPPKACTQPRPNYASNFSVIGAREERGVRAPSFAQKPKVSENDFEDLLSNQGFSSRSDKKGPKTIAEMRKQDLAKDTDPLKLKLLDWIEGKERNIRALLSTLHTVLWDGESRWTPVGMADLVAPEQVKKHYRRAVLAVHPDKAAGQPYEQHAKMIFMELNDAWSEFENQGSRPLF
Assay: InCELL Pulse cellular target engagement
Type: cell-based
Conditions: in cells

| Compound | IC50 [µM] |
| --- | --- |
| COc1cc2nccc(Nc3cc(OC)c(OC)c(OC)c3)c2cc1OC [compound 15, 6,7-disubstituted methoxy (15)] | 0.045 |
| COc1cc(Nc2ncnc3ccc(C(F)(F)F)cc23)cc(OC)c1OC [compound 19, quinazoline (19)] | 6.7 |
